Experimental data taken from US20250295659A1, “METHODS FOR TREATING TRAUMATIC BRAIN INJURY” (The Regents of the University of California, priority 2021, published 2025).
Entries after “also recorded” stand apart in the source; their conditions may differ.

Legend:
[1] = doses for FDA-approved treatments (cancer patients); cited from earlier work
[2] = tested on: TBI (moderate lateral fluid percussion) in adult male Sprague-Dawley rats; assay: Morris Water Maze after moderate lateral fluid percussion TBI; assay type: in vivo, rat; settings: LFP-TBI, 2 mg/kg i.p. single dose immediately after TBI, days 12 through 16 after TBI, vs TBI/vehicle, P<0.05
Procedure: Moderate Lateral fluid percussion (LFP) was used to produce TBI in adult male Sprague-Dawley rats (weighing 300-350 grams). […] All of the following data were obtained using moderate LFP in adult rats. […] Sham and vehicle control animals received 5% DMSO in 0.9% saline. Morris Water Maze (MWM). Spatial memory was assessed using the MWM on days 12 through 16 after TBI. […] In brief rats were released from one of four starting points and allowed 120 s to find the escape platform. Rats received a total of 4 trials per day, one from each starting point, over 5 consecutive days. Behavioral assessments were performed by an individual blinded to the treatment groups. Mean latency to find the platform was calculated for each day to assess learning as well as the mean swimming speed to assess motor function. Statistical differences were determined using repeated measures ANOVA followed by Dunnett's post hoc test.

[3] = tested on: CCI-TBI in rats, ipsilateral hippocampal CA2-3 neurons; assay: NeuN-positive hippocampal CA2-3 neuron counts after CCI-TBI; assay type: in vivo, rat; settings: 2 mg/kg single dose at 0, 3 or 6 hrs post-TBI, 24 hrs after TBI, vs TBI/vehicle, P<0.05 or P<0.01
Procedure: Brain sample preparation and immunohistochemistry. Anesthetized rats were perfused with saline followed by 4% PFA at day 1 or day 16. Brain sections (50 μm) are cut at −20° C. and incubated in 0.3% H2O2 for 10 minutes to quench endogenous peroxidase, incubated with 3% horse blocking serum for 20 minutes, and then incubated overnight in primary antibody (mouse anti-NeuN, mature neuron marker, 1:150, Millipore), then in biotinylated secondary antibody (Goat anti-mouse 1:1,000, Vector) for 0.5 h, then placed in Vectastain ABC reagent for 0.5 hr and incubated in peroxidase substrate 3, 3′-diaminobenzidine (DAB) solution for 10 min.
Stereological cell counts. The total number of NeuN-positive neurons in CA2-3 of hippocampus were quantified bilaterally using stereological methods. The NeuN-positive cell counts were performed on a microscope (Nikon E600, Nikon) using commercial software (Stereo Investigator™8.0, Microbrightfield, Inc.). Serial sections cut at 50 μm thick were collected at Bregma −2.80 mm to Bregma −4.16 mm for a total of 10 sections per brain. […] Statistical differences are determined using ANOVA followed by Dunnett's post hoc test.
Methods: One day after controlled cortical impact (CCI)-TBI, rats were anesthetized and transcardially perfused with PBS followed by 4% PFA. […] The NeuN^+ cells in ipsilateral hippocampal CA2-3 were quantified (n=4-8).

[4] = tested on: CCI-TBI in rats; assay: Elevated body swing test after CCI-TBI; assay type: in vivo, rat; settings: 2 mg/kg i.p. single dose at 0 or 3 hrs post-TBI, 24 hrs after TBI, vs TBI/vehicle, P<0.05
[5] = target: c-Kit (Homo sapiens, UniProt P10721); settings: target kinase c-Kit; cell-free; read-out: IC50 (nm) in vitro; cited from earlier work
Chain of c-Kit (P10721 26-976): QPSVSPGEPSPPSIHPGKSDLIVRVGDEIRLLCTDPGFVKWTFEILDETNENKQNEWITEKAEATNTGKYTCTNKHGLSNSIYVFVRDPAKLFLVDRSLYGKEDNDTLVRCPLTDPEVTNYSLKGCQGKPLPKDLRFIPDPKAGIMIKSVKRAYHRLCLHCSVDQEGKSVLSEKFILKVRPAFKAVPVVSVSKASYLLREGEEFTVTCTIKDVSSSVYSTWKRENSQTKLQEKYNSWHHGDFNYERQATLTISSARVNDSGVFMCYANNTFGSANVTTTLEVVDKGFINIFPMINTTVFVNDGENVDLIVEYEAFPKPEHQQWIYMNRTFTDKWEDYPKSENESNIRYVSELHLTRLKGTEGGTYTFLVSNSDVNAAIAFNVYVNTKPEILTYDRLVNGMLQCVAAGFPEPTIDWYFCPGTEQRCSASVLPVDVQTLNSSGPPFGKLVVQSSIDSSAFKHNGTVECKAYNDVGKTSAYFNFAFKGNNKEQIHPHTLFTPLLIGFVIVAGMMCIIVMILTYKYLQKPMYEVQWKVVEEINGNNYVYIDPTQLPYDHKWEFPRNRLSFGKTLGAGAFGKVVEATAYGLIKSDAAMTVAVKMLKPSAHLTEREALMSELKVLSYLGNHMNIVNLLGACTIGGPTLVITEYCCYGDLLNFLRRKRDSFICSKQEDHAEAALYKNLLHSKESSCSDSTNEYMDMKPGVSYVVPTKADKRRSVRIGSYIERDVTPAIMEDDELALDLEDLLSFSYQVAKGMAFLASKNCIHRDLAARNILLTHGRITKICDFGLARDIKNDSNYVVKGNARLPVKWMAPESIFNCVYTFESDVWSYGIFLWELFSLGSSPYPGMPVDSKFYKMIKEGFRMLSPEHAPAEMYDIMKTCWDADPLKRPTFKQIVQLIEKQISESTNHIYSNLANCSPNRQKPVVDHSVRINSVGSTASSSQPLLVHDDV

Structure (SMILES) | Common Side effects when used at the doses for FDA-approved treatments [1] | further results
Cn1cc(-c2cc3c(N4CCN(c5ncc([C@@](C)(N)c6ccc(F)cc6)cn5)CC4)ncnn3c2)cn1 [Avapritinib] | Edema, Nausea, Fatigue, General weakness, Acute confusion, Vomiting, Anorexia,; also recorded: Diarrhea, Hair discoloration, Eye tearing, Acute abdominal pain, Constipation, Skin; also recorded: rash, Dizziness, Anemia, Leukopenia | –
COc1cc(Nc2c(C#N)cnc3cc(OCCCN4CCN(C)CC4)c(OC)cc23)c(Cl)cc1Cl [Bosutinib] | Diarrhea, Nausea, Thrombocytopeniasorder, Vomiting, Kidney disease with; also recorded: reduction in GFR, Skin rash, Anemia, Fever, Fatigue, Neutropenic disorder,; also recorded: Abnormal hepatic function tests, Upper respiratory infection, Lower respiratory; also recorded: infection, General weakness, Anorexia, Pharyngitis, Back pain, Headache disorder,; also recorded: Dizziness, Dyspnea | –
Cc1nc(Nc2ncc(C(=O)Nc3c(C)cccc3Cl)s2)cc(N2CCN(CCO)CC2)n1 [Dasatinib] | Fever, Fatigue, Malaise; also recorded: Infection, Hypophosphatemia, Hypocalcemia, Body fluid retention, Anemia,; also recorded: Thrombocytopenia disorder, Neutropenic disorder, Peripheral neuropathy,; also recorded: Hemorrhage, Upper respiratory infection, Pleural effusions, Stomatitis,; also recorded: Constipation, Gastrointestinal hemorrhage, Pruritus of skin, Arthralgia, Dizziness, | latency to find the platform in the Morris Water Maze (spatial memory) [2]: significantly improved performance; also recorded: reduces spatial memory deficits; survival of NeuN+ CA2-3 neurons in ipsilateral hippocampus [3]: significantly promotes survival of CA2-3 neurons; also recorded: decreases CA2-3 neuronal loss; motor imbalance (biased swinging) in elevated body swing test [4]: significantly mitigated motor imbalance; also recorded: mitigates motor imbalance
COc1cc2nccc(Oc3ccc(NC(=O)NC4CC4)c(Cl)c3)c2cc1C(N)=O [Lenvatinib] | – | IC50 [5]: 100 nM
Cc1cn(-c2cc(NC(=O)c3ccc(C)c(Nc4nccc(-c5cccnc5)n4)c3)cc(C(F)(F)F)c2)cn1 [Nilotinib] | Hypocalcemia, Hyponatremia, Back pain, Hyperkalemia, Hypokalemia,; also recorded: Pancytopenia, Anemia, Thrombocytopenia disorder, Leukopenia, Neutropenic; also recorded: disorder, Elevated serum lipase, Hypertension, Prolonged QT interval, Pharyngitis,; also recorded: Constipation, Muscle spasm, Pruritus of skin, Arthralgia, Myalgia, Vertigo | –
Cc1ccc(Nc2nccc(N(C)c3ccc4c(C)n(C)nc4c3)n2)cc1S(N)(=O)=O [Pazopanib] | Nausea, Vomiting, Diarrhea, Thrombocytopenia disorder, Leukopenia, Neutropenic; also recorded: disorder, Alopecia, Hypertension, Fatigue, Hemorrhage, General weakness, Skin; also recorded: rash, Proteinuria, Anorexia, Weight loss, Headache disorder, Hair bleaching, Pain,; also recorded: Myalgia, Thrombotic disorder | –
FC(F)(F)c1ccc(CNc2ccc(Cc3c[nH]c4ncc(Cl)cc34)cn2)cn1 [Pexidartinib] | Blurred vision, decreased appetite, dizziness, fever, headache, itching or skin rash,; also recorded: fast heartbeat, swelling of the feet or lower legs | –
Cc1ccc(C(=O)Nc2ccc(CN3CCN(C)CC3)c(C(F)(F)F)c2)cc1C#Cc1cnc2cccnn12 [Ponatinib] | Thromboembolic disorder, Arterial thrombosis, Hypertension, Thrombocytopenic; also recorded: disorder, Neutropenic disorder, Anemia, Skin rash, Leukopenia, Acute abdominal; also recorded: pain, Fatigue, Headache disorder, Dry skin, Constipation, Arthralgia, Nausea,; also recorded: Fever, Lymphopenia, Bone marrow depression, Diarrhea, Vomiting | –
CNC(=O)c1cc(Oc2ccc(NC(=O)Nc3ccc(Cl)c(C(F)(F)F)c3)c(F)c2)ccn1 [Regorafenib] | Hypertension, Impaired wound healing, General weakness, Fatigue, Anorexia,; also recorded: Palmar-plantar erythrodysesthesia, Diarrhea, Stomatitis, Weight loss, Infection,; also recorded: Voice change, Hemorrhage, Fever, Skin rash, Headache disorder,; also recorded: Hypophosphatemia, Pain, Nausea, Acute abdominal pain, Anemia | –
CCn1c(=O)c(-c2cc(NC(=O)Nc3ccccc3)c(F)cc2Br)cc2cnc(NC)cc21 [Ripretinib] | Alopecia, Fatigue, Nausea, Acute abdominal pain, Constipation, Myalgia, Diarrhea,; also recorded: Anorexia, Palmar-plantar erythrodysesthesia, Vomiting, Elevated serum lipase,; also recorded: Hypophosphatemia | –
CNC(=O)c1cc(Oc2ccc(NC(=O)Nc3ccc(Cl)c(C(F)(F)F)c3)cc2)ccn1 [Sorafenib] | Hypophosphatemia, Anemia, Thrombocytopenia disorder, Leukopenia,; also recorded: Neutropenic disorder, Lymphopenia, Depression, Peripheral neuropathy,; also recorded: Hypertension, Hemorrhage, Stomatitis, Dyspepsia, Constipation, Gastrointestinal; also recorded: hemorrhage, Erectile dysfunction, Eczema, Exfoliative dermatitis, Erythema,; also recorded: Pruritus of skin, Alopecia | –
CCN(CC)CCNC(=O)c1c(C)[nH]c(/C=C2\C(=O)Nc3ccc(F)cc32)c1C [Sunitinib] | Increased risk of bleeding, Pain in extremities, Peripheral edema, Back pain,; also recorded: Hypertension, Chronic heart failure; also recorded: Stomatitis, Dyspepsia, Constipation, Dry skin, Dyschromia, Arthralgia, Headache; also recorded: disorder, Dizziness, Fever, Fatigue, General weakness, Dysgeusia, Skin rash,; also recorded: Anorexia | –
